The target of this assay is T1, Interleukin-1β (IL-1β) (Homo sapiens, UniProt P01584).
T1 construct: gene IL1B; recombinant human IL-1β
Briefly: SPR (Biacore T200, IL-1β immobilized on CM5 chip). The assay is classed as binding. Background: In SPR one partner is held on a chip, and binding of the other changes the refractive index at the surface.

As usually defined, the Kd is the free concentration of one partner at which half of the binding sites on the other are occupied at equilibrium, for simple one-to-one binding. Read a high Kd as a looser complex.

T1 sequence (P01584 117-269): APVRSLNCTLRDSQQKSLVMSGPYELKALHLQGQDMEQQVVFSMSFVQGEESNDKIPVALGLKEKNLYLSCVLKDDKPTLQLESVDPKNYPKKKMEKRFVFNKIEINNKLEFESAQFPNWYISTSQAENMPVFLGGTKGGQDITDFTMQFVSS

Turning to `O=C(OC[C@H]1O[C@@H](OC(=O)c2cc(O)c(O)c(OC(=O)c3cc(O)c(O)c(O)c3)c2)[C@H](OC(=O)c2cc(O)c(O)c(OC(=O)c3cc(O)c(O)c(O)c3)c2)[C@@H](OC(=O)c2cc(O)c(O)c(OC(=O)c3cc(O)c(O)c(O)c3)c2)[C@@H]1OC(=O)c1cc(O)c(O)c(OC(=O)c2cc(O)c(O)c(O)c2)c1)c1cc(O)c(O)c(OC(=O)c2cc(O)c(O)c(O)c2)c1` [TA, Tannic acid], the Kd came to 822 nM.

Source of the values: article PMC10118179, “Tannic acid, an IL-1β-direct binding compound, ameliorates IL-1β-induced inflammation and cartilage degradation by hindering IL-1β-IL-1R1 interaction” (PLOS ONE, 2023).
